{"source": "paper PMC12073449", "about": "“Development of a Mechanism of Action-Reflective Cell-Based Reporter Gene Assay for Measuring Bioactivities of Therapeutic Glucagon-like Peptide-2 Analogues” (Molecules, 2025)", "tested_on": "HEK293-GLP-2R-Luc cells", "note": "Ends that are not written are not given here."}
{"substance": "HGEGTFSSELATILDALAARDFINWLIATKITDKKKKKK-NH2 [glepaglutide]", "values": [{"measurement": "log2 (TD/Ctrl) CYP1B1", "value": 1.052}, {"measurement": "log2 (TD/Ctrl) CYP4V2", "value": "−1.198"}, {"measurement": "log2 (TD/Ctrl) CYP4 × 1", "value": "−1.963"}, {"measurement": "log2 (TD/Ctrl) TRPV1", "setting": "Qvalue 0.001125", "value": "−1.038"}, {"measurement": "log2 (TD/Ctrl) NEK8", "setting": "Qvalue 0.001147", "value": "−1.057"}, {"measurement": "log2 (TD/Ctrl) METTL25", "setting": "Qvalue 0.001214", "value": "−1.045"}, {"measurement": "log2 (TD/Ctrl) ITGA8", "setting": "Qvalue 0.001396", "value": "−1.102"}, {"measurement": "log2 (TD/Ctrl) UBOX5", "setting": "Qvalue 0.00141", "value": 1.051}, {"measurement": "log2 (TD/Ctrl) CC2D2A", "setting": "Qvalue 0.001438", "value": "−1.1174"}, {"measurement": "log2 (TD/Ctrl) DERL3", "setting": "Qvalue 0.001478", "value": "−1.237"}, {"measurement": "log2 (TD/Ctrl) ADAM12", "setting": "Qvalue 0.001549", "value": 1.112}, {"measurement": "log2 (TD/Ctrl) RBPMS2", "setting": "Qvalue 0.001565", "value": 1.069}, {"measurement": "log2 (TD/Ctrl) RBM11", "setting": "Qvalue 0.001608", "value": 1.143}, {"measurement": "log2 (TD/Ctrl) SLCO2A1", "setting": "Qvalue 0.001637", "value": 1.773}, {"measurement": "log2 (TD/Ctrl) AMH", "setting": "Qvalue 0.001638", "value": "−1.122"}, {"measurement": "log2 (TD/Ctrl) EMP1", "setting": "Qvalue 0.001666", "value": 1.518}, {"measurement": "log2 (TD/Ctrl) RNLS", "setting": "Qvalue 0.001684", "value": 2.251}, {"measurement": "log2 (TD/Ctrl) AATK", "setting": "Qvalue 0.001714", "value": 1.156}, {"measurement": "log2 (TD/Ctrl) ZSWIM4", "setting": "Qvalue 0.001797", "value": 1.054}, {"measurement": "log2 (TD/Ctrl) NGEF", "setting": "Qvalue 0.001858", "value": 1.549}, {"measurement": "log2 (TD/Ctrl) LOC124901228", "setting": "Qvalue 0.002022", "value": "−1.299"}, {"measurement": "log2 (TD/Ctrl) HILPDA", "setting": "Qvalue 0.00213", "value": "−1.215"}, {"measurement": "log2 (TD/Ctrl) GPRASP3", "setting": "Qvalue 0.002224", "value": "−1.474"}, {"measurement": "log2 (TD/Ctrl) SRGAP3", "setting": "Qvalue 0.002313", "value": "−1.063"}, {"measurement": "log2 (TD/Ctrl) PPEF1", "setting": "Qvalue 0.002369", "value": 1.543}, {"measurement": "log2 (TD/Ctrl) BOK", "setting": "Qvalue 0.002402", "value": 1.599}, {"measurement": "log2 (TD/Ctrl) PRR7", "setting": "Qvalue 0.002734", "value": 1.209}, {"measurement": "log2 (TD/Ctrl) SAT1", "setting": "Qvalue 0.002832", "value": 2.416}, {"measurement": "log2 (TD/Ctrl) SDHAF4", "setting": "Qvalue 0.002952", "value": 1.018}, {"measurement": "log2 (TD/Ctrl) IL7R", "setting": "Qvalue 0.003482", "value": 2.4}, {"measurement": "log2 (TD/Ctrl) RHOB", "setting": "Qvalue 0.003482", "value": 2.852}, {"measurement": "log2 (TD/Ctrl) CCDC61", "setting": "Qvalue 0.003634", "value": 1.663}, {"measurement": "log2 (TD/Ctrl) H2BC21", "setting": "Qvalue 0.004109", "value": 1.259}, {"measurement": "log2 (TD/Ctrl) CXCL12", "setting": "Qvalue 0.004272", "value": "−2.422"}, {"measurement": "log2 (TD/Ctrl) UGT3A1", "setting": "Qvalue 0.004706", "value": 3.069}, {"measurement": "log2 (TD/Ctrl) MYPN", "setting": "Qvalue 0.005296", "value": 2.401}, {"measurement": "log2 (TD/Ctrl) PTPRN", "setting": "Qvalue 0.005327", "value": 3.046}, {"measurement": "log2 (TD/Ctrl) RHBDF1", "setting": "Qvalue 0.005404", "value": 1.083}, {"measurement": "log2 (TD/Ctrl) KLF2", "setting": "Qvalue 0.005739", "value": 1.928}, {"measurement": "log2 (TD/Ctrl) SH2D2A", "setting": "Qvalue 0.005953", "value": 2.922}, {"measurement": "log2 (TD/Ctrl) SYT4", "setting": "Qvalue 0.005991", "value": 2.338}, {"measurement": "log2 (TD/Ctrl) NTRK2", "setting": "Qvalue 0.006147", "value": 1.454}, {"measurement": "log2 (TD/Ctrl) PLPP2", "setting": "Qvalue 0.006233", "value": 1.309}, {"measurement": "log2 (TD/Ctrl) ATG16L2", "setting": "Qvalue 0.006489", "value": 1.087}, {"measurement": "log2 (TD/Ctrl) ASGR1", "setting": "Qvalue 0.00679", "value": 2.135}, {"measurement": "log2 (TD/Ctrl) DHRS9", "setting": "Qvalue 0.007207", "value": 2.367}, {"measurement": "log2 (TD/Ctrl) SH2D5", "setting": "Qvalue 0.00738", "value": 1.053}, {"measurement": "log2 (TD/Ctrl) SLC30A3", "setting": "Qvalue 0.007467", "value": 1.182}, {"measurement": "log2 (TD/Ctrl) SHANK2", "setting": "Qvalue 0.007984", "value": 2.035}, {"measurement": "log2 (TD/Ctrl) NAA80", "setting": "Qvalue 0.008009", "value": 1.249}, {"measurement": "log2 (TD/Ctrl) CLIP2", "setting": "Qvalue 0.008212", "value": 1.052}, {"measurement": "log2 (TD/Ctrl) LOC128125822", "setting": "Qvalue 0.008527", "value": 2.711}, {"measurement": "log2 (TD/Ctrl) RND1", "setting": "Qvalue 0.008622", "value": 1.057}, {"measurement": "log2 (TD/Ctrl) SH3RF2", "setting": "Qvalue 0.008648", "value": 1.516}, {"measurement": "log2 (TD/Ctrl) DUSP2", "setting": "Qvalue 0.008669", "value": 3.424}, {"measurement": "log2 (TD/Ctrl) MAGED4", "setting": "Qvalue 0.009809", "value": "−1.159"}, {"measurement": "log2 (TD/Ctrl) MAP6", "setting": "Qvalue 0.009857", "value": 1.691}, {"measurement": "log2 (TD/Ctrl) TMEM225B", "setting": "Qvalue 0.010366", "value": 1.448}, {"measurement": "log2 (TD/Ctrl) CHRD", "setting": "Qvalue 0.010428", "value": 1.261}, {"measurement": "log2 (TD/Ctrl) FNTB", "setting": "Qvalue 0.011191", "value": "−1.039"}, {"measurement": "log2 (TD/Ctrl) MARVELD3", "setting": "Qvalue 0.011267", "value": 1.031}, {"measurement": "log2 (TD/Ctrl) FSTL4", "setting": "Qvalue 0.011445", "value": 1.312}, {"measurement": "log2 (TD/Ctrl) POC1B-GALNT4", "setting": "Qvalue 0.011547", "value": "−1.319"}, {"measurement": "log2 (TD/Ctrl) GDPGP1", "setting": "Qvalue 0.011565", "value": "−1.43"}, {"measurement": "log2 (TD/Ctrl) CREG2", "setting": "Qvalue 0.012071", "value": 1.949}, {"measurement": "log2 (TD/Ctrl) CERS4", "setting": "Qvalue 0.01208", "value": 1.131}, {"measurement": "log2 (TD/Ctrl) ANKRD1", "setting": "Qvalue 0.012462", "value": 2.953}, {"measurement": "log2 (TD/Ctrl) PLEKHN1", "setting": "Qvalue 0.012462", "value": 2.21}, {"measurement": "log2 (TD/Ctrl) KRT75", "setting": "Qvalue 0.012583", "value": 2.099}, {"measurement": "log2 (TD/Ctrl) ALDH1L2", "setting": "Qvalue 0.012744", "value": 1.303}, {"measurement": "log2 (TD/Ctrl) GUCA1B", "setting": "Qvalue 0.013456", "value": 1.026}, {"measurement": "log2 (TD/Ctrl) SH2D3A", "setting": "Qvalue 0.013825", "value": 1.146}, {"measurement": "log2 (TD/Ctrl) CATSPERE", "setting": "Qvalue 0.013837", "value": "−2.496"}, {"measurement": "log2 (TD/Ctrl) TFEB", "setting": "Qvalue 0.014032", "value": 1.085}, {"measurement": "log2 (TD/Ctrl) SCN2A", "setting": "Qvalue 0.014161", "value": "−2.494"}, {"measurement": "log2 (TD/Ctrl) FAM47E-STBD1", "setting": "Qvalue 0.014365", "value": 6.132}, {"measurement": "log2 (TD/Ctrl) IL11", "setting": "Qvalue 0.014439", "value": 2.543}, {"measurement": "log2 (TD/Ctrl) ICOSLG", "setting": "Qvalue 0.015122", "value": 1.337}, {"measurement": "log2 (TD/Ctrl) HHIP", "setting": "Qvalue 0.016047", "value": 1.114}, {"measurement": "log2 (TD/Ctrl) COL15A1", "setting": "Qvalue 0.016322", "value": 2.733}, {"measurement": "log2 (TD/Ctrl) ADAMTSL1", "setting": "Qvalue 0.016921", "value": 1.769}, {"measurement": "log2 (TD/Ctrl) AJM1", "setting": "Qvalue 0.017304", "value": "−1.327"}, {"measurement": "log2 (TD/Ctrl) RASGRP3", "setting": "Qvalue 0.017723", "value": 1.426}, {"measurement": "log2 (TD/Ctrl) ZNF233", "setting": "Qvalue 0.018109", "value": "−1.102"}, {"measurement": "log2 (TD/Ctrl) ADM2", "setting": "Qvalue 0.018318", "value": 1.127}, {"measurement": "log2 (TD/Ctrl) FMNL1", "setting": "Qvalue 0.018333", "value": 1.446}, {"measurement": "log2 (TD/Ctrl) PHF24", "setting": "Qvalue 0.018911", "value": 1.839}, {"measurement": "log2 (TD/Ctrl) MAP2", "setting": "Qvalue 0.019619", "value": "−1.138"}, {"measurement": "log2 (TD/Ctrl) BCL3", "setting": "Qvalue 0.020272", "value": 1.728}, {"measurement": "log2 (TD/Ctrl) EXO5", "setting": "Qvalue 0.020878", "value": "−1.023"}, {"measurement": "log2 (TD/Ctrl) POLN", "setting": "Qvalue 0.020952", "value": "−1.364"}, {"measurement": "log2 (TD/Ctrl) C20orf204", "setting": "Qvalue 0.021231", "value": "−1.777"}]}
